Source: patent publication US4350700A, “Pharmaceutical composition containing 1,3,5-substituted biuret compound” (Taiho Pharmaceutical Company, Limited, priority 1979, dated 1982)
Where two headings read alike, the source gives them in different places.

How the values were obtained:
ddy strain of male mice = assay: Acute toxicity (oral, general symptom and death observed for 7 days); format: in vivo; conditions: 7 days
Procedure: (§1) Next, several tests for determining the pharmacological properties, in that acute toxicity, anti-pyretic activity, analgesic activity and anti-inflammatory activity of the present 1,3,5-substituted biuret compounds of the formula (1) were conducted and the test results are shown in Table (2). In the tests, each compounds to be tested was used as a suspension in 0.25% carboxymethylcellulose solution. Methods for testing are explained as follows:
The ddy strain of male mice (body weight, 20-25 g) were used as test animals. The mice were fasted overnight and the compound to be tested was administered orally. […] The lethal dose (mg/kg, body weight) of the test compound was determined in connection with the death number of mice/the number of mice tested. In Table 2, the values indicated with Δ marks are 50% lethal dose, LD50 (mg/kg, body weight).

[1] = system: acetic acid-induced stretching symptom of mouse; assay: Analgesic activity, acetic acid-induced stretching method; format: in vivo, mice (ddy strain, male); conditions: read-out: Analgesic activity, acetic acid-induced stretching method, inhibitory ratio
Procedure: as §1
(1) Acetic acid-induced stretching method
According to the method reported by Koster et.al., [Fed. Proc., Vol. 18, pp. 412 (1959)], the ddy strain of male mice (body weight, 20-25 g) were used as test animals. The mice were fasted overnight, 100 mg/kg body weight of the test compound was administered orally, then 1 hour after the administration, 0.2 ml of 0.7% acetic acid solution was injected intraperitoneally. The acetic acid-induced stretching symptom of mouse was observed. Analgesic activity of the test compound was calculated as the inhibitory ratio (%). In Table 2, the values in parentheses show the data obtained from the test by using the dosage other than 100 mg/kg body weight. Further, the values indicated with Δ marks show 50% effective dose, ED50 (mg/kg body weight).

[2] = system: pain reaction of the mouse caused by a clamp; assay: Analgesic activity, Haffner method; format: in vivo, mice (ddy strain, male); conditions: mice
Procedure: as §1
According to the modified method reported by Fujimura et al., [Bulletin of the Institute for Chemical Research, Kyoto University, No. 25, pp. 36 (1951)], the ddy strain of male mice (body weight, 20-25 g) were used as test animals. The mice were fasted overnight, 100 mg/kg body weight of the test compound was administered orally, then 45 minutes after the administration, the threshhold amount (1.5-2.5 mg/kg body weight) of morphine hydrochloride was injected subcutaneously. Then 1-hour pain reaction of the mouse caused by a clamp was observed. Analgesic activity of the test compound was calculated as the inhibitory ratio (%). In Table 2, the values in parentheses show the data obtained from the test by using the dosage other than 100 mg/kg body weight. Further, the values indicated with Δ marks show 50% effective dose, ED50 (mg/kg body weight).

[3] = system: carrageenin-induced inflammation of the hindpaw of the rat; assay: Anti-inflammatory activity, acute carrageenin-induced inflammatory test; format: in vivo, rats (Wistar strain, male); conditions: Rattus norvegicus, read-out: Anti-inflammatory activity, inflammation inhibitory ratio
Procedure: as §1
4. Anti-inflammatory Activity
According to the method of acute carrageenin-induced inflammatory test [Folia Pharmacologia Japonica, Vol. 56, pp. 575 (1960)], the Wistar strain of male rats (body weight, 150-180 g) were used as test animals. The rats were fasted overnight, 100 mg/kg body weight of the test compound was administered orally, then 1 hour after the administration, 0.1 ml of 1% carrageenin solution, as the inflammation inducing agent, was injected subcutaneously to the hindpaw of the rat and the volume of the hindpaw was measured at time sequences. Anti-inflammatory activity of the test compound was calculated as inflammation inhibitory ratio (%) at 3 hours after the injection of inflammation inducing agent.

[4] = 100 mg/kg oral, rats, 3 hours after carrageenin
[5] = 200 mg/kg oral, rats, 3 hours after carrageenin

Row | SMILES | Acute toxicity, death number of mice/number of mice tested (ddy strain of male mice; 2000 mg/kg oral) | inhibition in vivo at 100 mg/kg ([1]; po) [%] | Acute toxicity, death number of mice/number of mice tested (ddy strain of male mice; 1000 mg/kg oral) | Analgesic activity, Haffner method, inhibitory ratio ([2]; 100 mg/kg oral) [%] | Analgesic activity, Haffner method, inhibitory ratio ([2]; 200 mg/kg oral) [%] | other results
1 | CN(C(N)=O)C(=O)Nc1ccccc1 [Compound No. 1] | 2/4 | 37.5 |  |  |  | 
2 | CNC(=O)NC(=O)Nc1ccccc1 [Compound No. 2] |  | 75 | 4/4 | 50 |  | Acute toxicity, death number of mice/number of mice tested (ddy strain of male mice; 500 mg/kg oral): 0/4; inhibition in vivo at 100 mg/kg ([3]; po, 3 h): 28%
3 | CCN(C(=O)NC)C(=O)Nc1ccccc1 [Compound No. 21, 1-Methyl-3-ethyl-5-phenylbiuret] | 3/4 | 50 | 1/4 | 37.5 |  | inhibition in vivo at 100 mg/kg [3, 4]: 56%
4 | CNC(=O)N(C(=O)Nc1ccccc1)c1ccccc1 [Compound No. 22, 1-methyl-3,5-diphenylbiuret] | 0/4 | 37.5 |  |  | 50 | inhibition in vivo at 100 mg/kg [3, 4]: 35%
5 | CCNC(=O)NC(=O)Nc1ccccc1 [Compound No. 23, 1-ethyl-5-phenylbiuret] | 0/4 | 62.5 |  |  | 60 | inhibition in vivo at 100 mg/kg [3, 4]: 49%
6 | CN(C(=O)NCC(C)(C)O)C(=O)Nc1ccccc1 [Compound No. 57, 1-(2-Methyl-2-hydroxypropyl)-3-methyl-5-phenylbiuret] | 2/4 |  | 0/4 | 50 |  | inhibition in vivo at 100 mg/kg ([1]; 100 mg/kg oral, mice): 100%
7 | CNC(=O)N(C)C(=O)Nc1ccccc1C(=O)O [compound 10, 1,3-Dimethyl-5-(2-carboxyphenyl)biuret] | 4/4 | 12.5 | 1/4 |  |  | 
8 | CNC(=O)N(C)C(=O)NCc1ccccc1 [compound 12] |  |  | 4/4 | 50 |  | Acute toxicity, death number of mice/number of mice tested (ddy strain of male mice; 500 mg/kg oral): 0/4; inhibition in vivo at 100 mg/kg ([1]; 100 mg/kg oral, mice): 100%; inhibition in vivo at 100 mg/kg ([3]; po, 3 h): 47%
9 | CNC(=O)N(C)C(=O)NCc1ccccn1 [compound 13, 1,3-Dimethyl-5-(2-pyridylmethyl)biuret] | 2/4 |  | 0/4 | 37.5 |  | inhibition in vivo at 100 mg/kg ([1]; 100 mg/kg oral, mice): 25%
10 | CCNC(=O)NC(=O)Nc1ccccc1Cl [compound 24, 1-Ethyl-5-(2-chlorophenyl)biuret] | 0/4 |  |  |  | 37.5 | inhibition in vivo at 200 mg/kg ([1]; 200 mg/kg oral, mice): 25%; inhibition in vivo at 200 mg/kg [3, 5]: 77%
11 | CCNC(=O)NC(=O)Nc1cccc(Cl)c1 [compound 25, 1-Ethyl-5-(3-chlorophenyl)biuret] | 0/4 |  |  |  | 37.5 | inhibition in vivo at 200 mg/kg ([1]; 200 mg/kg oral, mice): 25%; inhibition in vivo at 200 mg/kg [3, 5]: 86%
12 | CCNC(=O)NC(=O)Nc1ccc(Cl)cc1 [compound 26] | 0/4 |  |  |  | 25 | inhibition in vivo at 200 mg/kg ([1]; po): 12.5%; inhibition in vivo at 200 mg/kg [3, 5]: 76%
13 | CCNC(=O)NC(=O)Nc1ccc(Cl)c(Cl)c1 [compound 27, 1-Ethyl-5-(3,4-dichlorophenyl)biuret] | 1/4 |  | 0/4 |  | 12.5 | inhibition in vivo at 200 mg/kg ([1]; po): 12.5%; inhibition in vivo at 200 mg/kg ([3]; po, 3 h): 44%
